Results taken from patent publication US7538094B2, “Composition containing ribavirin and use thereof” (Three Rivers Pharmacueticals, LLC, priority 2002, dated 2009).

Key:
[1] = cited from earlier work
[2] = cited from earlier work; remark: listed apart in the source
[3] = Angle of repose (flowability); format: physicochemical; settings: sample passed through 12 mesh screen, funnel with 1 cm aperture
Text: Another measure of flowability can be made by determining a material's angle of repose. The angle of repose is a standard test in the pharmaceutical industry to establish the relative flowability of a solid pharmaceutical formulation. (See, e.g., Lachman et al., “The Theory and Practice of Industrial Pharmacy” 3rd Ed. (1986) pp 67-68). A greater angle of repose means a less flowable material. Remington's Pharmaceuticals Sciences lists the angle of repose for glass beads (a high flowing material) at 23 degrees and for granular limestone (a poor flowing material) at 64 degrees. Cohesive materials can be as high as 90 degrees. (See Remington's Pharmaceutical Sciences, 19th Ed. Mack Publishing Co., (1995) p. 1607).
Angle of repose data was collected for ribavirin composition made in accordance with Examples 1 and 3 and compared to bulk ribavirin and a commercial ribavirin product. In determining the angle of repose for the compositions of the present invention and comparative examples thereto, a sample was passed through a 12 mesh screen to break up agglomerates. […] The funnel height was then measured, as well as the diameter (width) of the sample. […] The angle of repose for a given sample was calculated by taking the inverse tangent of the following equation: Tan (a)=2H/W, where H is the height of the funnel from the paper and W is the averaged diameter of the poured sample at its base.

For NC(=O)c1ncn([C@@H]2O[C@H](CO)[C@@H](O)[C@H]2O)n1 [ribavirin, 1-β-D-ribofuranosyl-1H-1,2,4-triazole-3-carboxamide], the bioavailability with food ([1]; administered with a high fat meal) is given as “increase significantly”, the biological half-life ([1]; in vivo, after multiple oral dosing (steady state)) is given as “ca. 298 hours” and the “bioavailability (AUC) versus dose” value ([1]; oral administration, Physician's Desk Reference) is given as “increases linearly with the dose”. The “maximum concentration of the drug in vivo (Cmax) versus dose” value ([1]; oral administration, curvilinear, reaching an asymptote, Physician's Desk Reference) was “does not increase linearly with the dose”, the solubility [2] was “water-soluble” and the Repose Angle, Trial 1 ([3]; Trial 1) was 44 °. The Repose Angle, Trial 2 ([3]; Trial 2) was 42 °.
